≈ marks a conversion by molar mass, not a printed value. Where a name gives a salt, the structure may show the parent alone. Read-outs that look alike come from different tables or passages of the source. Where only a bound is given, the exact number is not on record here.

Results on 16 molecules are retold here after EP0170926B1, “Eburnanecarboxylic acid derivatives having an amino group in position 9 or 11, the amino group eventually being substituted, process for their preparation, and medicaments containing these compounds” (priority 1984, dated 1986).

Data set [1] can be described thus: Antihypoxic effect, investigations without described method. The following applies: in vivo.
Data set [2] can be described thus: Vasodilating effect, tests without described method. The note with it: in vivo.
Data set [3] relates to isolierten Meerschweinchenileum. Kind of data set: Spasmolytic activity: inhibition of barium chloride-induced contraction of isolated guinea pig ileum. More on the design: species or system Meerschweinchen. The note with it: Cavia porcellus. The source says: Die spasmolytische Aktivität der Verbindungen wurde am isolierten Meerschweinchendarm auf klassische Weise bestimmt (Magnus, R., Pflügers Arch., 102; 123/1904/). Als Referenzsubstanz wurden das bekannte Spasmolytikum Papaverin, ferner (+)-Apovincaminsäureäthylester verwendet. Die Ergebnisse sind in der Tabelle II zusammengefaßt.

In data set [4] the test system is nicht narkotisierter Mäuse. Briefly: Antihypoxic effect: normobaric hypoxia in non-anaesthetised mice. It is filed as in vivo. The note with it: for Überlebensdauer (min): 50 mg/kg intraperitoneal 30 min before test, 96 % nitrogen, 4 % oxygen, mean ± spread; for Überlebensdauer (%) Verlängerung: prolongation versus control. The source says: Die antihypoxische Wirkung wurde an nicht narkotisierten Mäusen in normobarer Hypoxie bestimmt. Fünf männliche Mäuse wurden in einen Glaszylinder von 3 Liter Volumen gesetzt, und in den Zylinder wurde ein aus 96 % Stickstoff und 4 % Sauerstoff bestehendes Gasgemisch eingeleitet. Gemessen wurde die Zeit zwischen dem Einbringen der Tiere in den Zylinder und ihrem Verenden. Diejenigen Tiere, die die unbehandelte Kontrolle um mehr als die doppelte Zeitspanne überlebten, können als erfolgreich behandelt gelten. Die zu untersuchenden Substanzen wurden je 10 Tieren in einer Dosis von 50 mg/kg Intraperitoneal 30 Minuten vor Versuchsbeginn verabreicht.

In data set [5] the test system is Tiere. Briefly: Antihypoxic effect: asphyxic anoxia. It is filed as in vivo. The following applies: po, 1 h; p.o., one hour before test; protected = survival 30 % longer than control; read-out: ED50 Asphyxische Anoxie. As to the method:
Die antihypoxische Wirkung wurde ferner hoch an asphyxischer Anoxie (Caillard C. et al.: Life Sci. 16, 1607 /1975/) und an hypobarer Hypoxie (Baumel J. et al: Proc. Soc. Biol. N.Y. 132, 629 /1969/) gemessen. Dabei wurden die Tiere 16 Stunden lang ausgehungert, dann p.o. behandelt und eine Stunde später in gut schließende Glasgefäße von 100 ml Volumen gesetzt. Als Überiebenszeit wurde die Zeit vom Verschließen des Gefäßes bis zur letzten Atembewegung registriert. Als erfolgreich behandelt können diejenigen Tiere gelten, die eine um 30 % längere Zeit an Leben blieben als der Durchschnitt der Kontrollgruppe.

The test system of data set [6] is Tiere. Briefly: Antihypoxic effect: hypobaric hypoxia. It is filed as in vivo. The note with it: po, 1 h; p.o., one hour before test; 221 mbar; protected = survival 100 % longer than control; probit analysis; read-out: ED50 Hypobare Hypoxie. The source says:
Die Wirkung auf die hypobare Hypoxie wurde an 16 Stunden lang ausgehungerten Tieren untersucht, die eine Stunde vor Versuchsbeginn p.o. mit den Verbindungen behandelt wurden. Die Tiere wurden In einen Vakuumexsikkator gesetzt, und der Druck wurde innerhalb von 20 Sekunden auf 221 mbar [170 Torr] gesenkt. Von diesem Zeitpunkt an wurde als Überlebensdauer die Zeit bis zur letzten Atembewegung gemessen. Als erfolgreich behandelt wurden diejenigen Tiere betrachtet, deren Überlebensdauer um 100 % länger war als die durchschnittliche Übedebensdauer der Kontrolle. Aus dem prozentualen Anteil der geschützten Tiere wurden mittels Probit-Analyse die ED50-Werte berechnet.

Data set [7] relates to Kreislauf narkotisierter Hunde. Briefly: Vasodilating effect: blood flow in anaesthetised dogs (electromagnetic flow meter). It is filed as in vivo. The following applies: Canis lupus familiaris, 1 mg/kg intravenous, six dogs. The protocol:
Die gefäßerweiternde Wirkung wurde an mit "Chloralose-Pentobarbital"-Gemisch narkotisierten Hunden untersucht. Die Durchblutung der Extremitäten wurde an der Arteria femoralis gemessen, über die Durchblutung des Gehirns ergaben Messungen an der Arteria carotis interna Aufschluß. Zu den Messungen wurden elektromagnetische Strömungsmesser verwendet. Die zu untersuchenden Substanzen wurden in einer Dosis von 1 mg/kg Körpergewicht sechs Hunden appliziert, und die in den gemessenen Parametern eintretenden Veränderungen wurden in Prozent umgerechnet. Als Referenzsubstanz diente der in der Medizin als gefäßerweiternde Substanz allgemein angewendete (+)-Apovincamlnsäureäthylester. Die Ergebnisse sind In der Tabelle I zusammengefaßt.

For data set [8], the system named is Mäusen. Kind of data set: Anticonvulsive effect: maximal electroshock in mice. It is filed as in vivo. The note with it: Mus musculus, po; 20 mA, 0,2 s, corneal electrode; read-out: ED50 max. Elektroschock.
Source text: Der Schock wurde an 22 - 24 g schweren Tieren durch eine corneale Elektrode ausgelöst (20 mA, 0,2 s, HSE-Schockgerät Typ 207). Als geschützt wurden diejenigen Tiere betrachtet, bei denen durch die Behandlung die tonische Extension der hinteren Gliedmaßen ausblieb.
Data set [9] concerns Mäusen. Kind of data set: Anticonvulsive effect: metrazole (pentylenetetrazole) convulsion in mice. It is filed as in vivo. The note with it: Mus musculus, po; 125 mg/kg pentylenetetrazole subcutaneous; read-out: ED50 Metrazolkrampf.
Source text: Die Tiere erhielten nach der Vorbehandlung subkutan 125 mglkg Pentylentetrazol. Registriert wurde das Ausbleiben des persistierenden clonischen Krampfes und des tonischen Extensorkrampfes.
Data set [10] is described as follows: in vivo. More on the design: species or system Mäuse. The note with it: mouse, po. The source says: Muskelrelaxierende Wirkung (Traction).
A short description of data set [11]: in vivo. The following applies: for TD50: po. The protocol: Messung der Muskelinkoordination (Rotarod) (H. Kwibara et al.: Japan J. Pharmacol. 27, 117 /1977/). Nach vorherigem Training wurden Tiere ausgewählt die im Stande sind, 120 Sekunden lang auf dem horizontalen Stab (Durchmesser 20 mm, Drehzahl 12 min^-1) oben zu bleiben. Als Muskelinkoordination wurde gewertet, wenn die Tiere innerhalb der Limitzeit herabfielen.

Setting [12] is: inhibition of barium chloride-induced contraction, read-out: ED50 (the source's name).
Setting [13] is: blood flow of Arteria carotis interna (brain), read-out: A. carotis (Veränderungen in Prozent).
Setting [14] is: blood flow of Arteria femoralis (extremities), read-out: A. femoralis (Veränderungen in Prozent).

For the molecule `CCC12C=C(C(=O)OC)n3c4c(c5c([N+](=O)[O-])cccc53)CCN(CCC1)C42` (centres unmarked) [9-Nitro-apovincamin], in data set [1], the “antihypoxische Wirkung” value is listed as “keine antihypoxische Wirkung”.
For `CCC12CCCN3CCc4c(n(c5cccc([N+](=O)[O-])c45)C(O)(C(=O)OC)C1)C32` (centres unmarked) [9-Nitro-vincamin], the “gefäßerweiternde Wirkung” value in data set [2] was “keine gefäßerweiternde Wirkung”.
In general, ED50 refers to the dose that gives a 50% effect, or the effect in half of the subjects. Regarding `CCOC(=O)C1=C[C@]2(CC)CCCN3CCc4c(n1c1ccccc41)[C@@H]32` [Apovincaminsäureäthylester, reference compound], the IC50 in [3] (setting [12]) turned out to be 2 µg/mL (≈ 5.71 µM). Moreover, the “Überlebensdauer (min)” value in data set [4] is listed as 6,4 ± 1,58 min. Further, the “Überlebensdauer (%) Verlängerung” value in data set [4] (50 mg/kg intraperitoneal) came out at 7%. Also, the ED50 with Tiere [5] and in the data set on Tiere [6] was greater than 50 mg/kg each time.
`CCOC(=O)C1=C[C@]2(CC)CCCN3CCc4c(n1c1cccc(N)c41)[C@@H]32` [Beispiel 6, 9-(Amino)-apovincaminsäureäthylesterhydrochlorid]: the “Überlebensdauer (min)” value in data set [4] is on record as 7,3 ± 2,31 min. The “Schutz (%)” value in data set [4] (50 mg/kg intraperitoneal, animals surviving more than twice the control time) is 10%. Besides, the “Überlebensdauer (%) Verlängerung” value in [4] (50 mg/kg intraperitoneal) is listed as 22%.
For the molecule `CCOC(=O)C1=C[C@]2(CC)CCCN3CCc4c(n1c1cccc(NS(C)(=O)=O)c41)[C@@H]32` [Beispiel 7, 9-(Methylsulfonylamino)-apovincaminsäureäthylesterhydrochlorid], the change in vivo at 1 mg/kg in [7] (setting [13]) amounted to 0%.
On to `CC[C@@]12C=C(C(=O)OC)n3c4c(c5ccc(NC(=O)c6ccc([N+](=O)[O-])cc6)cc53)CCN(CCC1)[C@H]42` [Beispiel 9, 11-[4'-(Nitro)-benzoylamino]-apovincamin], for which the results for the 50% effective dose (ED50) in the data set with Tiere [5] and in the data set with Tiere [6] were 40.9 mg/kg and 42.1 mg/kg, respectively.
Consider `CC[C@@]12C=C(C(=O)OC)n3c4c(c5ccc(NC(C)=O)cc53)CCN(CCC1)[C@H]42` [Beispiel 21, 11-(Acetamido)-apovincamin], for which the change in vivo at 1 mg/kg in data set [7] (setting [14]) was 0%.
As for `CC[C@@]12C=C(C(=O)OC)n3c4c(c5ccc(NC(=O)c6ccccc6F)cc53)CCN(CCC1)[C@H]42` [Beispiel 26, 11-[2'-(Fluor)-benzoylamino]-apovincamin], the IC50 in data set [3] (setting [12]) is 4 µg/mL (≈ 8.45 µM).
On to `CC[C@@]12C=C(C(=O)OC)n3c4c(c5ccc(NC(=O)c6ccccc6)cc53)CCN(CCC1)[C@H]42` [Beispiel 28, 11-(Benzoylamino)-apovincamin], for which, in data set [3] (setting [12]), the IC50 was determined as 2.5 µg/mL (≈ 5.49 µM). Further, the median effective dose (ED50) with Tiere [5] is 25 mg/kg; in the data set with Tiere [6], greater than 50 mg/kg; in the data set with Mäusen [8] it was 16 mg/kg; with Mäusen [9], 15.9 mg/kg.
Turning to `CCOC(=O)C1=C[C@]2(CC)CCCN3CCc4c(n1c1cc(NC(=O)c5cccs5)ccc41)[C@@H]32` [Beispiel 37, 11-(Thien-2'-ylcarbonylamino)-apovincaminsäureäthylesterhydrochlorid], the change in vivo at 1 mg/kg in data set [7] (setting [14]) is 0%.
Turning to `CCOC(=O)C1=C[C@]2(CC)CCCN3CCc4c(n1c1cc(NC(=O)c5ccccc5)ccc41)[C@@H]32` [Beispiel 38, 11-(Benzoylamino)-apovincaminsäureäthylesterhydrochlorid], the change in vivo at 1 mg/kg in [7] (setting [14]) stood at 0%. The 50% effective dose (ED50) is 16.7 mg/kg in the data set with Mäusen [8] and 9.7 mg/kg in the data set on Mäusen [9]. Besides, the TD50 in the data set “in vivo [10]” and in “in vivo [11]” was greater than 180 mg/kg in each case.
Take `CC[C@@]12C=C(C(=O)OCC(C)C)n3c4c(c5ccc(NC(C)=O)cc53)CCN(CCC1)[C@H]42` [Beispiel 39, 11-(Acetamido)-apovincaminsäureisobutylesterhydrochlorid]: the change in vivo at 1 mg/kg in data set [7] (setting [14]) amounted to 0%.
For the molecule `CCOC(=O)C1=C[C@]2(CC)CCCN3CCc4c(n1c1cccc(NC(C)=O)c41)[C@@H]32` [Beispiel 40, 9-(Acetamido)-apovincaminsäureäthylesterhydrochlorid], the change in vivo at 1 mg/kg in [7] (setting [13]) worked out at 0%.
On to `CCC1(c2ccccc2)NC(=O)N(C)C1=O` (centres unmarked) [Mephenitoin, reference compound], for which the 50% effective dose (ED50) in the data set with Tiere [5] was greater than 80 mg/kg; with Tiere [6] it was greater than 80 mg/kg; in the data set with Mäusen [8] it was 26.3 mg/kg; in the data set on Mäusen [9], 24.5 mg/kg. The TD50 in the data set “in vivo [10]” is 154 mg/kg; in “in vivo [11]”, 78.6 mg/kg. Further, in “in vivo [11]” (mouse), the selectivity ratio is 3 to 6.
In the case of `COc1ccc(Cc2nccc3cc(OC)c(OC)cc23)cc1OC` [Papaverin, reference compound], the IC50 in data set [3] (read-out: ED50) was 5.4 µg/mL (≈ 15.9 µM).
As for `CC[C@]12CCCN3CCc4c(n(c5ccccc45)[C@@](O)(C(=O)OC)C1)[C@@H]32` [Vincamin], the “Überlebensdauer (min)” value in [4] is listed as 6,1 ± 1,30 min. Also, in [4] (50 mg/kg intraperitoneal), the “Überlebensdauer (%) Verlängerung” value was found to be 2%.
